Laboratory results as given in PMC7044277 (Nature Communications, 2020).
Where “and” joins values, the source holds several entries; their conditions need not be identical. Identical values can stand only once.

Legend:
5HT1A = target: T1, 5HT1A (Homo sapiens, UniProt P08908); assay: β-arrestin2 recruitment (Tango); type: cell-based; conditions: Fig_S10f, single replicates
T1 construct: expressed in transfected cells; host or cells: HTLA cells expressing TEV-fused β-arrestin2
T1 sequence (P08908 1-422): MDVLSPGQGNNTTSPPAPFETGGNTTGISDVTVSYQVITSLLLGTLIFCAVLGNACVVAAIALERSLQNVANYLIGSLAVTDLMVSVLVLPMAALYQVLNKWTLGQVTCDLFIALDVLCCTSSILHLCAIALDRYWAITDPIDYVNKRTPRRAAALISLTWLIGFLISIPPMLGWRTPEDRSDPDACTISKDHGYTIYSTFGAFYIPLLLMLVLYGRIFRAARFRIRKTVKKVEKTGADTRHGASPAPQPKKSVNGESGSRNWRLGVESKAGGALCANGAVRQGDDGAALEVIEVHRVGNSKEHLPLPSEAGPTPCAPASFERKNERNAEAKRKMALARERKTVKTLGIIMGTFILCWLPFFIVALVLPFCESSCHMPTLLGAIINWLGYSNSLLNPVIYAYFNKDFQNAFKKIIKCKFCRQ

[1] = test system: serotonin receptor of Fig_S10g (subtype not named); assay: β-arrestin2 recruitment (Tango), agonist activity, panel Fig_S10g (serotonin as reference; receptor not given); type: cell-based, human
5HT1F = target: T2, 5HT1F (Homo sapiens, UniProt P30939); assay: β-arrestin2 recruitment (Tango); type: cell-based; conditions: for β-arrestin2 recruitment response, agonist mode (single replicate values): Fig_S10j; for Fig_S10j dose-response, drug alone (agonist mode), β-arrestin2 recruitment: single replicate values
T2 construct: expressed in transfected cells; host or cells: HTLA cells expressing TEV-fused β-arrestin2
T2 sequence (P30939 1-366): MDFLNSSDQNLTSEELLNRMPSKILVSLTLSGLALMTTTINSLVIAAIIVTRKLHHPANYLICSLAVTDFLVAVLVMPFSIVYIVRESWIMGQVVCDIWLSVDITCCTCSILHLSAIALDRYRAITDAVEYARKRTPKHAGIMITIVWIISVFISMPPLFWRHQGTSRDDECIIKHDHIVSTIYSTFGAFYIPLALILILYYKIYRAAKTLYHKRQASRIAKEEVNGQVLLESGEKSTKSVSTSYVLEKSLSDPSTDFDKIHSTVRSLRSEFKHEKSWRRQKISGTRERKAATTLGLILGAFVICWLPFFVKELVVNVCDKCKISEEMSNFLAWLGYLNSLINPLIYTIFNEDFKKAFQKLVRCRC

[2] = test system: serotonin receptor of Fig_S10i (subtype not given); assay: β-arrestin2 recruitment (Tango), agonist activity, source data Fig_S10i; type: cell-based, human; conditions: drug alone
5HT1E = 5HT1E (Homo sapiens, UniProt P28566); assay: β-arrestin2 recruitment (Tango); type: cell-based; conditions: Fig_S10i
5HT1E, sequence (P28566 whole entry): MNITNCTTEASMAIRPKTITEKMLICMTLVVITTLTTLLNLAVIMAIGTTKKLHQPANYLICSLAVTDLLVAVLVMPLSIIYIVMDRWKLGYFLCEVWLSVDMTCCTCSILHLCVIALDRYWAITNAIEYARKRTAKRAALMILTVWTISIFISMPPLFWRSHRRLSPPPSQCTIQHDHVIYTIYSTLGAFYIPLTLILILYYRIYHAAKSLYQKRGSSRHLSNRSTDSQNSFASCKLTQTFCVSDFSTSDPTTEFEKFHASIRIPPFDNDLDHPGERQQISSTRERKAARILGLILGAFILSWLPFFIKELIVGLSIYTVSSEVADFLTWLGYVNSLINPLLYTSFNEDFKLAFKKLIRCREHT

SMILES: NCCc1c[nH]c2ccc(O)cc12 [serotonin]
- β-arrestin2 recruitment response, agonist mode (normalized) (5HT1A; Log[Drug] -9.52): 0.051 and -0.6094 and 0.4564 and 0.9983 and -0.6725 and -0.3119 and 0.3423 and -0.09315 and -0.541 and 0.6114
- β-arrestin2 recruitment response, agonist mode (normalized) (5HT1A; Log[Drug] -10): -0.5013 and -1.706 and 4.314 and 0.8312 and -0.5054 and -0.4971 and 1.761 and 0.86 and 0.493 and 1.8886 and 0.4834
- β-arrestin2 recruitment response, agonist mode (normalized) (5HT1A; Log[Drug] -10.52): 0.008354 and -1.487 and -0.1989 and 2.088 and -0.6683 and 3.151 and -0.06065 and -0.5318 and -0.2913
- β-arrestin2 recruitment response, agonist mode (normalized) (5HT1A; Log[Drug] -11): -0.8312 and 0.8491 and 0.1249 and -0.3544 and 0.3342 and 1.248 and -0.5329 and 0.3 and -1.04 and 0.4834
- β-arrestin2 recruitment response, agonist mode (normalized) (5HT1A; Log[Drug] -11.52): -0.8271 and 2.483 and -0.08669 and -0.3213 and -0.5138 and 3.162 and -0.4376 and 0.6466 and -0.1376 and 0.477 and 1.383 and 1.636
- β-arrestin2 recruitment response, agonist mode (normalized) (5HT1A; Log[Drug] -12): -0.1546 and 0.0408 and 0.03825 and -0.07649 and -0.33 and -0.5096 and -0.8188 and 0.4787 and -0.4787 and 6.658 and -0.3041 and 1.905
- response, single replicate of concentration-response curve ([1]; Log[Drug] -8, drug alone): 25.2624 and 2.418 and -0.9864 and -1.203
- response, single replicate of concentration-response curve ([1]; Log[Drug] -8.52, drug alone): 25.8336 and 6.58 and 3.873 and 4.678 and -1.548 and 7.766 and 9.13 and -0.6727 and -11.3553 and -6.415 and -5.731 and -10.9031
- response, single replicate of concentration-response curve ([1]; Log[Drug] -9, drug alone): 10.8032 and 1.6368 and -4.3076 and 0.1698 and 3.269 and 3.74 and 1.924 and 0.05671 and -7.517 and 1.634 and 12.5106 and -9.089
- response, single replicate of concentration-response curve ([1]; Log[Drug] -9.52, drug alone): 7.867 and 1.536 and -2.919 and -4.095 and 0.1351 and -9.62 and 29.2497 and 12.5325 and 5.929 and 12.1786 and -19.689 and -3.037
- response, single replicate of concentration-response curve ([1]; Log[Drug] -10, drug alone): 13.3168 and 3.318 and 3.578 and -7.852 and 7.397 and -7.7805 and -4.613 and 22.4428 and -0.2757 and -9.974 and -10.1372 and -5.303
- response, single replicate of concentration-response curve ([1]; Log[Drug] -10.52, drug alone): -2.613 and 10.3391 and -3.556 and 0.8157 and -5.415 and -4.823 and 18.6922 and -6.036 and 3.52 and 5.655 and -15.149 and -15.6819
- response, single replicate of concentration-response curve ([1]; Log[Drug] -11, drug alone): 7.973 and 11.7127 and -1.724 and -0.1913 and 3.65 and 5.648 and -0.1936 and 0.6531 and 0.8995 and 27.444 and 32.0015 and 10.1517
- response, single replicate of concentration-response curve ([1]; Log[Drug] -11.52, drug alone): 21.6155 and 10.2673 and -4.337 and 2.007 and 0.7121 and -12.0608 and 20.4384 and 18.8721 and -0.9836 and 23.865 and -4.732 and 10.0527
- response, single replicate of concentration-response curve ([1]; Log[Drug] -12, drug alone): 27.8009 and 4.255 and 0.08804 and -4.341 and 18.1882 and 2.442 and 25.1178 and 36.1309 and 7.918 and 30.4435 and -6.616 and 17.9883
- β-arrestin2 recruitment response, agonist mode (single replicate values) (5HT1F; Log[Drug] -8): -3.452 and 0.8129 and -0.7741 and 0.7081 and -0.3166
- β-arrestin2 recruitment response, agonist mode (single replicate values) (5HT1F; Log[Drug] -8.52): 1.467 and -0.5936 and -0.6771 and -0.2347 and -1.695 and -2.24 and -2.059 and -1.682 and -0.1562 and 2.169 and 0.8707 and -1.81
- β-arrestin2 recruitment response, agonist mode (single replicate values) (5HT1F; Log[Drug] -9): -0.04426 and -0.9855 and -1.843 and -0.9137 and -1.161 and -1.413 and 1.14 and -2.447 and -1.948 and 1.946 and -0.5 and -0.1377
- β-arrestin2 recruitment response, agonist mode (single replicate values) (5HT1F; Log[Drug] -9.52): -2.101 and 2.6714 and -0.3744 and -0.1804 and 3.084 and -0.3427 and -1.809 and -0.4001 and 2.85 and -0.1339 and -0.298
- β-arrestin2 recruitment response, agonist mode (single replicate values) (5HT1F; Log[Drug] -10): -0.8375 and -0.7488 and -1.773 and 1.74 and -2.24 and -1.559 and -0.2741 and -1.133 and -0.7969 and 0.416 and -0.2133 and -1.1997
- β-arrestin2 recruitment response, agonist mode (single replicate values) (5HT1F; Log[Drug] -10.52): -2.914 and -1.511 and -1.366 and -1.154 and -2.628 and -0.5924 and -0.6184 and 5.324 and 0.8942 and 0.1831 and -0.2458 and -1.109
- β-arrestin2 recruitment response, agonist mode (single replicate values) (5HT1F; Log[Drug] -11): 4.606 and -2.13 and -1.057 and 0.00776 and -2.261 and -1.2903 and -0.3379 and -1.603 and 0.8607 and 0.8858 and 0.4773 and -0.3843
- β-arrestin2 recruitment response, agonist mode (single replicate values) (5HT1F; Log[Drug] -11.52): -1.978 and -2.064 and -1.769 and 3.255 and 2.53 and 1.832 and 0.0271 and 2.781 and -0.9914 and 1.71 and -0.0711 and -0.3911
- β-arrestin2 recruitment response, agonist mode (single replicate values) (5HT1F; Log[Drug] -12): -1.651 and 2.46 and -1.762 and -0.6984 and -0.5958 and -0.3302 and -0.006376 and -1.878 and -2.439 and 3.47 and -0.3101 and 0.7769
- Fig_S10j dose-response, drug alone (agonist mode), β-arrestin2 recruitment (5HT1F; Log[Drug] -5): 60.4606 and 65.0002 and 90.3142 and 57.9444 and 78.7631 and 57.8244 and 78.5234 and 70.8275 and 63.3071
- Fig_S10j dose-response, drug alone (agonist mode), β-arrestin2 recruitment (5HT1F; Log[Drug] -5.52): 68.8966 and 66.6667 and 38.5966 and 34.7166 and 67.3748 and 41.3918 and 50.0717 and 43.7042 and 56.4145 and 60.2307 and 56.8071
- Fig_S10j dose-response, drug alone (agonist mode), β-arrestin2 recruitment (5HT1F; Log[Drug] -6): 65.3117 and 41.5532 and 32.9512 and 18.8414 and 35.6041 and 33.2006 and 38.6085 and 22.7128 and 20.6455 and 38.0393 and 43.4213 and 39.1952
- Fig_S10j dose-response, drug alone (agonist mode), β-arrestin2 recruitment (5HT1F; Log[Drug] -6.52): 37.7864 and 17.7453 and 10.6352 and 8.195 and 10.8807 and 16.9203 and 24.2636 and 7.26 and 7.434 and 25.9629 and 24.0976 and 19.2564
- Fig_S10j dose-response, drug alone (agonist mode), β-arrestin2 recruitment (5HT1F; Log[Drug] -7): 0.08171 and 0.8827 and 2.8945 and 3.486 and 0.8409 and 1.495 and 3.165 and 2.979 and 1.237 and 11.4622 and 7.762 and 4.191
- Fig_S10j dose-response, drug alone (agonist mode), β-arrestin2 recruitment (5HT1F; Log[Drug] -7.52): -1.661 and -1.926 and 1.238 and 3.081 and -2.387 and 1.699 and 4.498 and -1.4313 and 5.445 and 5.244 and 1.302 and 0.4992
- response, single replicates of the concentration-response curve ([2]; Log[Drug] -11.52): -4.3954 and -4.987 and -4.556 and 52.5363 and 8.29 and -6.9 and -8.356 and -5.164 and -18.2115
- response, single replicates of the concentration-response curve ([2]; Log[Drug] -12): 5.024 and 5.16 and -7.062 and 21.8387 and 17.0887 and 8.533
- β-arrestin2 recruitment response, agonist mode (single replicate values) (5HT1E; Log[Drug] -5.52): 108.092 and 78.7034 and 68.0996 and 111.634 and 84.2736 and 51.0795 and 58.1946
- β-arrestin2 recruitment response, agonist mode (single replicate values) (5HT1E; Log[Drug] -6): 49.7303 and 44.0521 and 69.0964 and 55.0788 and 40.5129 and 63.4469 and 42.3724 and 34.8106
- β-arrestin2 recruitment response, agonist mode (single replicate values) (5HT1E; Log[Drug] -6.52): 106.224 and 69.1939 and 36.3693 and 81.3314 and 34.6361 and 22.755 and 52.7781 and 32.1336 and 42.1707
- β-arrestin2 recruitment response, agonist mode (single replicate values) (5HT1E; Log[Drug] -7): 29.3778 and 17.2077 and 21.8054 and 52.9182 and 14.1436 and 22.9549 and 34.3028 and 15.3331 and 17.5442
- β-arrestin2 recruitment response, agonist mode (single replicate values) (5HT1E; Log[Drug] -7.52): 41.4851 and -6.092 and 11.8176 and 23.4775 and 20.4513 and 6.343 and -1.8765 and -0.1243 and 3.783
- β-arrestin2 recruitment response, agonist mode (single replicate values) (5HT1E; Log[Drug] -8): 21.7287 and -17.9678 and 1.664 and 16.3198 and 16.2023 and 1.767 and -8.704 and -1.0625 and 5.333
- β-arrestin2 recruitment response, agonist mode (single replicate values) (5HT1E; Log[Drug] -8.52): 26.6743 and -0.7908 and -7.94 and 18.4011 and -5.808 and -1.038 and -3.241 and -4.6991 and -0.4891
- β-arrestin2 recruitment response, agonist mode (single replicate values) (5HT1E; Log[Drug] -9): -13.5816 and -3.11 and -9.22 and 15.9426 and -4.472 and -7.47 and -3.2021 and 8.202 and 2.053
- β-arrestin2 recruitment response, agonist mode (single replicate values) (5HT1E; Log[Drug] -9.52): -5.0682 and -13.6215 and 3.951 and -3.374 and 10.856 and -15.4751 and -6.969 and 2.056 and -4.273
- β-arrestin2 recruitment response, agonist mode (single replicate values) (5HT1E; Log[Drug] -10): -0.8245 and 7.169 and 4.501 and 15.8236 and -1.758 and 5.793 and -9.018 and 1.66
- β-arrestin2 recruitment response, agonist mode (single replicate values) (5HT1E; Log[Drug] -10.52): -1.038 and -22.0751 and -13.8927 and 22.1779 and 3.45 and -2.9 and -5.64 and 8.736
- β-arrestin2 recruitment response, agonist mode (single replicate values) (5HT1E; Log[Drug] -11): -16.6513 and -2.431 and 20.3066 and 6.343 and -2.603 and 3.357
